Measured values reported in the Deep4Chem optical property database.
One block for each compound: values may come before it.

Test: photoluminescence quantum yield (fraction); solvent given as SMILES
[1] = in O=P(c1ccccc1)(c1ccccc1)c1ccccc1Oc1ccccc1P(=O)(c1ccccc1)c1ccccc1

Compound: c1ccc(-c2nc(-c3ccccc3)nc(-c3ccc(-n4c5ccccc5c5c6oc7ccccc7c6ccc54)cc3)n2)cc1
photoluminescence quantum yield [1]: 0.853

Compound: N#Cc1c(-n2c3ccccc3c3cc(I)ccc32)c(C#N)c(-n2c3ccccc3c3cc(I)ccc32)c(-n2c3ccccc3c3cc(I)ccc32)c1-n1c2ccccc2c2cc(I)ccc21
photoluminescence quantum yield (in Cc1ccccc1): 0.78

Compound: O=C([O-])c1ccc(C(=O)[O-])c(C2=c3cc4c5c(c3Oc3c2cc2c6c3CCCN6CCC2)CCC[N+]=5CCC4)c1
photoluminescence quantum yield (in CCO): 0.83
photoluminescence quantum yield (in O): 0.64

Compound: Cc1ccc(-n2c(-c3ccccc3[N-]S(=O)(=O)c3ccc(C)cc3)[nH+]c3c4ccccc4c4ccccc4c32)cc1
photoluminescence quantum yield (in Cc1ccccc1): 0.468

Compound: CCCCCCCCn1c2ccc(/C=C/c3ccc(N(c4ccccc4)c4ccccc4)cc3)cc2c2cc3c(cc21)c1cc(/C=C/c2ccc(N(c4ccccc4)c4ccccc4)cc2)ccc1n3CCCCCCCC
photoluminescence quantum yield (in Cc1ccccc1): 0.6

Compound: CN(c1ccccc1)c1ccc(/C=C2\C(=O)c3ccccc3S2(=O)=O)cc1
photoluminescence quantum yield (in C1CCOC1): 0.003
photoluminescence quantum yield (in C1COCCO1): 0.012
photoluminescence quantum yield (in CC#N): 0.002
photoluminescence quantum yield (in CC(C)=O): 0.001
photoluminescence quantum yield (in CCOC(C)=O): 0.003
photoluminescence quantum yield (in CN(C)C=O): 0.003
photoluminescence quantum yield (in CO): 0.012
photoluminescence quantum yield (in CS(C)=O): 0.018
photoluminescence quantum yield (in Cc1ccccc1): 0.103
photoluminescence quantum yield (in ClC(Cl)Cl): 0.008
photoluminescence quantum yield (in ClCCl): 0.004

Compound: CCC1=C(C)C(=O)n2c1cc1c(CCC(=O)OC)c(C)c(C)n1c2=O
photoluminescence quantum yield (in CO): 0.82
photoluminescence quantum yield (in CS(C)=O): 1
photoluminescence quantum yield (in ClC(Cl)Cl): 0.95
photoluminescence quantum yield (in c1ccccc1): 1

Compound: C(=C\c1cnccn1)/c1ccc2nccnc2c1
photoluminescence quantum yield (in CCCCCC): 0.001
photoluminescence quantum yield (in CCO): 0.09
photoluminescence quantum yield (in CO): 0.12
photoluminescence quantum yield (in ClCCl): 0.04
photoluminescence quantum yield (in c1ccccc1): 0.02

Compound: Cc1c(C)n2c(COC(=O)c3ccccc3I)c(C)c(=O)n2c1=O
photoluminescence quantum yield (in CCO): 0.634

Compound: Cc1ccc(C2=[N+]3C(=Cc4ccc(C)n4[B-]3(F)F)c3ccccc32)[nH]1
photoluminescence quantum yield (in C1CCOC1): 0.81
photoluminescence quantum yield (in CC#N): 0.8
photoluminescence quantum yield (in CCCCCC): 0.83
photoluminescence quantum yield (in CO): 0.83
photoluminescence quantum yield (in Cc1ccccc1): 0.78
photoluminescence quantum yield (in ClCCl): 0.79

Compound: Fc1c(-c2nnc(-c3ccccc3)o2)c(-n2c3ccccc3c3ccccc32)c(F)c(-n2c3ccccc3c3ccccc32)c1-n1c2ccccc2c2ccccc21
photoluminescence quantum yield (in Cc1ccccc1): 0.2

Compound: COc1cc(OC)cc(-c2ccc(-c3ccc(C#N)s3)s2)c1
photoluminescence quantum yield (in C1CCCCC1): 0.09
photoluminescence quantum yield (in C1COCCO1): 0.09
photoluminescence quantum yield (in CC#N): 0.11
photoluminescence quantum yield (in CC(C)O): 0.1
photoluminescence quantum yield (in CCCCO): 0.1
photoluminescence quantum yield (in CCO): 0.1
photoluminescence quantum yield (in CCOC(C)=O): 0.09
photoluminescence quantum yield (in CN(C)C=O): 0.12
photoluminescence quantum yield (in CO): 0.1
photoluminescence quantum yield (in CS(C)=O): 0.16
photoluminescence quantum yield (in Cc1ccccc1): 0.09
photoluminescence quantum yield (in ClC(Cl)Cl): 0.1
photoluminescence quantum yield (in ClCCl): 0.09
photoluminescence quantum yield (in O): 0.02

Compound: CCN(CC)c1ccc(/C=C/c2ccc(-c3ccc(/C=C/c4ccc(N(CC)CC)cc4)s3)s2)cc1
photoluminescence quantum yield (in C1CCOC1): 0.14
photoluminescence quantum yield (in CC#N): 0.13
photoluminescence quantum yield (in CC(C)=O): 0.13
photoluminescence quantum yield (in CN(C)C=O): 0.12
photoluminescence quantum yield (in Cc1ccccc1): 0.14

Compound: Cc1cc(C)c(B(c2c(C)cc(C)cc2C)c2c(C)cc(-n3c4ccc(N(c5ccccc5)c5ccccc5)cc4c4cc(N(c5ccccc5)c5ccccc5)ccc43)cc2C)c(C)c1
photoluminescence quantum yield (in Cc1ccccc1): 0.84
photoluminescence quantum yield [1]: 1

Compound: [C-]#[N+]c1ccc(-c2ccc(NC)cc2)cc1
photoluminescence quantum yield (in C1CCCCC1): 0.74
photoluminescence quantum yield (in C1CCOC1): 0.74
photoluminescence quantum yield (in C1COCCO1): 0.77
photoluminescence quantum yield (in CC#N): 0.88
photoluminescence quantum yield (in CC(C)=O): 0.55
photoluminescence quantum yield (in CCCCCC): 0.49
photoluminescence quantum yield (in CCOC(C)=O): 0.63
photoluminescence quantum yield (in CN(C)C=O): 0.49
photoluminescence quantum yield (in CO): 0.65
photoluminescence quantum yield (in CS(C)=O): 0.72
photoluminescence quantum yield (in Cc1ccccc1): 0.59
photoluminescence quantum yield (in ClC(Cl)Cl): 0.55
photoluminescence quantum yield (in ClCCl): 0.85
photoluminescence quantum yield (in O): 0.0087
photoluminescence quantum yield (in c1ccncc1): 0.03

Compound: CSc1cc(-c2cc3cc4c5c(c3oc2=O)CCCN5CCC4)oc(=O)c1C#N
photoluminescence quantum yield (in C1CCOC1): 0.9
photoluminescence quantum yield (in CC#N): 0.29
photoluminescence quantum yield (in CC(C)=O): 0.43
photoluminescence quantum yield (in CCOC(C)=O): 0.67
photoluminescence quantum yield (in CN(C)C=O): 0.26
photoluminescence quantum yield (in CO): 0.22
photoluminescence quantum yield (in CS(C)=O): 0.29
photoluminescence quantum yield (in Cc1ccccc1): 0.71
photoluminescence quantum yield (in ClC(Cl)Cl): 0.53
photoluminescence quantum yield (in ClCCl): 0.63

Compound: COc1ccc2c3c(cccc13)C(=O)c1ccccc1-2
photoluminescence quantum yield (in CC#N): 0.62
photoluminescence quantum yield (in CC(C)=O): 0.56
photoluminescence quantum yield (in CC(C)O): 0.54
photoluminescence quantum yield (in CCCCOCCCC): 0.01
photoluminescence quantum yield (in CCOC(C)=O): 0.23
photoluminescence quantum yield (in CCOCC): 0.05
photoluminescence quantum yield (in CO): 0.45
photoluminescence quantum yield (in Cc1ccccc1): 0.1
photoluminescence quantum yield (in Clc1ccccc1): 0.41
photoluminescence quantum yield (in N#Cc1ccccc1): 0.69
photoluminescence quantum yield (in O=C1CCCCC1): 0.57

Compound: Nc1cccc2cccc(N)c12
photoluminescence quantum yield (in CC#N): 0.1
photoluminescence quantum yield (in CO): 0.09
photoluminescence quantum yield (in CS(C)=O): 0.3
photoluminescence quantum yield (in Cc1ccccc1): 0.13

Other lines, results leading:

photoluminescence quantum yield (in C1CCOC1): 0.00016
Compound: C1=Cc2ccccc2C(=Cc2ccc(-c3ccc(C=C4c5ccccc5-c5ccccc54)cc3)cc2)c2ccccc21

photoluminescence quantum yield (in CO): 0.87
Compound: COC(=O)COc1ccc(/C=C/C2=[N+]3C(=C(c4ccc(N5CCCCC5)cc4)c4c(C)cc(C)n4[B-]3(F)F)C(C)=C2)cc1

photoluminescence quantum yield (in ClC(Cl)Cl): 0.002
Compound: CCCCCCN1C(=O)c2cccc3cc(/N=C\c4nc5ccccc5s4)cc(c23)C1=O

photoluminescence quantum yield (in CC#N): 0.83
Compound: COc1ccc(C#Cc2ccccc2C#Cc2ccc(OC)cc2)cc1

photoluminescence quantum yield (in CC1CCCCC1): 0.44
photoluminescence quantum yield (in CC#N): 0.88
photoluminescence quantum yield (in CO): 0.97
Compound: COC(=O)C(NC(=O)OC(C)(C)C)c1ccc2oc(-c3ccc(N(C)C)cc3OC)nc2c1 (stereo not given)

photoluminescence quantum yield (in CO): 0.03
photoluminescence quantum yield (in CS(C)=O): 0.03
photoluminescence quantum yield (in O): 0.06
Compound: CCCN1/C(=C/C=C(/C=C/c2sc3ccccc3[n+]2CCC)c2ccc([N+](=O)[O-])cc2)C(C)(C)c2ccccc21

photoluminescence quantum yield (in ClCCl): 0.44
Compound: CCCCN(CCCC)c1ccc(C#Cc2cc(C#Cc3ccc(C(F)(F)F)cc3)c(C#Cc3ccc(C(F)(F)F)cc3)cc2C#Cc2ccc(N(CCCC)CCCC)cc2)cc1

photoluminescence quantum yield (in C1CCCCC1): 0.012
photoluminescence quantum yield (in CC#N): 0.008
Compound: CN(C)c1ccc(/C=C/c2nc3c(ccc4ccccc43)s2)cc1

photoluminescence quantum yield (in ClCCl): 0.162
Compound: c1ccc(-c2nc(-c3c[nH]c4ccccc34)n3ccccc23)cc1

photoluminescence quantum yield (in CCCCCC): 0.34
photoluminescence quantum yield (in CO): 0.28
photoluminescence quantum yield (in ClCCl): 0.45
Compound: Cc1ccc2ccc3cccc4ccc1c2c34

photoluminescence quantum yield (in ClCCl): 0.22
Compound: Cc1cc(-c2cccc3ccccc23)cc(C)[o+]1

photoluminescence quantum yield (in C1CCOC1): 0.39
Compound: c1ccc2c(c1)-c1ccccc1C21c2ccccc2-c2oc3c(c21)C1(c2ccccc2-c2ccccc21)c1ccccc1-3

photoluminescence quantum yield (in CC1CCCO1): 0.36
Compound: O=c1cc2cc(O)c3cc(O)cc4ccc(o1)c2c43

photoluminescence quantum yield (in ClCCl): 0.21
Compound: COc1ccc(-c2ccc(C(=O)NC(C)(C)C)c3c2ccc2c4ccccc4c4ccccc4c23)cc1

photoluminescence quantum yield (in ClCCl): 0.144
Compound: CCCCCCCCCCCCN1C(=O)c2c(c3ccc4cc(-c5ccc(Cl)cc5)c(OC)cc4c3c3c2ccc2cc(-c4ccc(Cl)cc4)c(OC)cc23)C1=O

photoluminescence quantum yield (in ClC(Cl)Cl): 0.33
photoluminescence quantum yield (in ClCCl): 0.33
Compound: COc1ccc2cc(C3=[N+]4C(=Nc5c(-c6ccccc6)cc(-c6ccc7cc(OC)ccc7c6)n5[B-]4(F)F)C(c4ccccc4)=C3)ccc2c1

photoluminescence quantum yield (in C1CCCCC1): 0.92
Compound: CCCC1(CCC)c2cc(-c3ccc(C(C)(C)C)cc3)ccc2-c2ccc(-c3ccc4c(c3)C(CCC)(CCC)c3cc(-c5ccc(C(C)(C)C)cc5)ccc3-4)cc21

photoluminescence quantum yield (in CO): 0.0028
photoluminescence quantum yield (in OCC(O)CO): 0.0011
photoluminescence quantum yield (in OCCO): 0.0014
photoluminescence quantum yield (in Oc1ccccc1): 4.3e-05
Compound: CN(CCO)c1ccc(/N=N/c2ccc([N+](=O)[O-])cc2)cc1

photoluminescence quantum yield (in CC#N): 0.51
photoluminescence quantum yield (in CO): 0.25
photoluminescence quantum yield (in ClCCl): 0.62
Compound: Cc1ccc(O)c(-c2[nH]c(=O)n3c2-c2ccccc2C3=O)c1

photoluminescence quantum yield (in ClCCl): 0.00069
Compound: COC(=O)C1=C(C(=O)OC)C2(c3ccccc3-c3ccc([N+](=O)[O-])cc32)C2(/C=C/c3ccccc3)c3cc(OC)c(OC)cc3CCN12 (stereo not given)

photoluminescence quantum yield (in ClCCl): 0.28
Compound: N#Cc1ccc(C#Cc2ncc(-c3ccccc3)o2)cc1

photoluminescence quantum yield (in CC#N): 0.11
photoluminescence quantum yield (in CCCCCC): 0.12
photoluminescence quantum yield (in CCOC(C)=O): 0.11
photoluminescence quantum yield (in CO): 0.14
photoluminescence quantum yield (in ClCCl): 0.2
Compound: COC1=[N+]2C(=C(c3ccccc3)c3ccc(OC)n3[B-]2(F)F)C=C1

photoluminescence quantum yield (in C1CCOC1): 0.39
Compound: CCCCn1c2ccc(C#Cc3cccs3)cc2c2c1c1c3ccc(C#Cc4cccs4)cc3n(CCCC)c1c1c3ccc(C#Cc4cccs4)cc3n(CCCC)c21

photoluminescence quantum yield (in C1CCOC1): 0.0027
photoluminescence quantum yield (in C1COCCO1): 0.0021
photoluminescence quantum yield (in CC#N): 0.0037
photoluminescence quantum yield (in CCCCCCC): 0.0082
photoluminescence quantum yield (in CCO): 0.0035
photoluminescence quantum yield (in CO): 0.0024
photoluminescence quantum yield (in O): 0.2
Compound: CC1(C)CC(=O)C2=C(C1)Oc1ccc3ccc(O)cc3c1C2c1ccccn1 (stereo not given)

photoluminescence quantum yield (in C1CCCCC1): 0.012
photoluminescence quantum yield (in CC#N): 0.005
photoluminescence quantum yield (in CCO): 0.006
photoluminescence quantum yield (in CCOC(C)=O): 0.007
photoluminescence quantum yield (in CO): 0.005
photoluminescence quantum yield (in OCC(F)(F)F): 0.006
Compound: Cc1ccc(C2=C3C=C(I)C=[N+]3[B-](F)(F)n3cc(I)cc32)cc1

photoluminescence quantum yield (in ClCCl): 0.25
Compound: CCCCN(CCCC)c1ccc(C#Cc2cc(C#Cc3cc(C(F)(F)F)cc(C(F)(F)F)c3)c(C#Cc3ccc(N(CCCC)CCCC)cc3)cc2C#Cc2cc(C(F)(F)F)cc(C(F)(F)F)c2)cc1

photoluminescence quantum yield (in ClCCl): 0.24
Compound: COc1ccc(C#Cc2nc3ccccc3nc2-c2ccn(-c3ccccc3)c2)cc1
